Reference: ChEMBL document CHEMBL1201862, “PubChem BioAssay data set” (2004)
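Test compounds were applied to cells in 96-well plates for 48 hours at 5 doses. Here, GI50 denotes the concentration required for 50% inhibition of growth.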 Activity calls are given as the source filed them. Rule as the data show it: active = GI50 up to about 1.1 µM and inactive = higher.

What was measured:
Assay in all cases: growth of human tumour cells (NCI), 48 h
MOLT-4 = tested on: MOLT-4
KM-20L2 = tested on: KM-20L2
OVCAR-3 = tested on: OVCAR-3
U-251 = tested on: U-251
CCRF-CEM = tested on: CCRF-CEM
SNB-19 = tested on: SNB-19
M19-MEL = tested on: M19-MEL
A549 = tested on: A549
786-0 = tested on: 786-0
DLD-1 = tested on: DLD-1
HL-60 = tested on: HL-60
SW-620 = tested on: SW-620
LOX IMVI = tested on: LOX IMVI
OVCAR-8 = tested on: OVCAR-8
SN12C = tested on: SN12C
HOP-92 = tested on: HOP-92
SNB-78 = tested on: SNB-78
M14 = tested on: M14
IGROV-1 = tested on: IGROV-1
RXF 631 = tested on: RXF 631
UACC-62 = tested on: UACC-62
TK-10 = tested on: TK-10
COLO 205 = tested on: COLO 205
SK-MEL-28 = tested on: SK-MEL-28
LXFL 529 = tested on: LXFL 529
SK-OV-3 = tested on: SK-OV-3
K562 = tested on: K562
EKVX = tested on: EKVX
NCI-H460 = tested on: NCI-H460
SF-539 = tested on: SF-539
DMS-114 = tested on: DMS-114
HCT-116 = tested on: HCT-116
A498 = tested on: A498
SK-MEL-5 = tested on: SK-MEL-5
OVCAR-4 = tested on: OVCAR-4
HOP-18 = tested on: HOP-18
HCC 2998 = tested on: HCC 2998
SF-295 = tested on: SF-295
ACHN = tested on: ACHN
SNB-75 = tested on: SNB-75
RPMI-8226 = tested on: RPMI-8226
NCI-H23 = tested on: NCI-H23
HCT-15 = tested on: HCT-15
HOP-62 = tested on: HOP-62
DMS-273 = tested on: DMS-273
RXF 393 = tested on: RXF 393
SF-268 = tested on: SF-268
KM12 = tested on: KM12
UACC-257 = tested on: UACC-257
UO-31 = tested on: UO-31
OVCAR-5 = tested on: OVCAR-5
HT-29 = tested on: HT-29
CAKI-1 = tested on: CAKI-1
NCI-H522 = tested on: NCI-H522
Malme-3M = tested on: Malme-3M
SK-MEL-2 = tested on: SK-MEL-2
NCI-H226 = tested on: NCI-H226
XF498 = tested on: XF498
SR = tested on: SR

In the case of `C/C(=N\N=C(\N)S)c1ccc(Oc2ccccc2)cc1`, the GI50 (MOLT-4) was 0.971 µM (active), the GI50 (KM-20L2) was 10.7 µM (inactive) and the GI50 (OVCAR-3) was 10.1 µM (inactive). For the same compound, the GI50 (U-251) was 15.4 µM (inactive), the GI50 (CCRF-CEM) was 5.04 µM (inactive) and the GI50 (SNB-19) was 16 µM (inactive). For the same compound, the GI50 (M19-MEL) was 15.1 µM (inactive), the GI50 (A549) was 18.7 µM (inactive) and the GI50 (786-0) was 4.05 µM (inactive). The GI50 (DLD-1) was 3.44 µM (inactive), the GI50 (HL-60) was 4.06 µM (inactive) and the GI50 (SW-620) was 16.3 µM (inactive). The GI50 (LOX IMVI) was 13.5 µM (inactive), the GI50 (OVCAR-8) was 11.7 µM (inactive) and the GI50 (SN12C) was 11.4 µM (inactive). For the same compound, the GI50 (HOP-92) was 3.65 µM (inactive), the GI50 (SNB-78) was 14.2 µM (inactive) and the GI50 (M14) was 9.98 µM (inactive). For the same compound, the GI50 (IGROV-1) was 2.59 µM (inactive), the GI50 (RXF 631) was 13.8 µM (inactive) and the GI50 (UACC-62) was 10.6 µM (inactive). For the same compound, the GI50 (TK-10) was 4.09 µM (inactive), the GI50 (COLO 205) was 8.36 µM (inactive) and the GI50 (SK-MEL-28) was 11.7 µM (inactive). The GI50 (LXFL 529) was 3.96 µM (inactive), the GI50 (SK-OV-3) was 16.2 µM (inactive) and the GI50 (K562) was 4.83 µM (inactive). The GI50 (EKVX) was 12.2 µM (inactive), the GI50 (NCI-H460) was 17.3 µM (inactive) and the GI50 (SF-539) was 5.38 µM (inactive). For the same compound, the GI50 (DMS-114) was 3.03 µM (inactive), the GI50 (HCT-116) was 10.2 µM (inactive) and the GI50 (A498) was 13.7 µM (inactive). For the same compound, the GI50 (SK-MEL-5) was 5.12 µM (inactive), the GI50 (OVCAR-4) was 3.7 µM (inactive) and the GI50 (HOP-18) was 14.1 µM (inactive). The GI50 (HCC 2998) was 7.93 µM (inactive), the GI50 (SF-295) was 8.07 µM (inactive) and the GI50 (ACHN) was 10.3 µM (inactive). The GI50 (SNB-75) was 7.38 µM (inactive), the GI50 (RPMI-8226) was 1.78 µM (inactive) and the GI50 (NCI-H23) was 11.8 µM (inactive). The GI50 (HCT-15) was 3.99 µM, the GI50 (HOP-62) was 20.5 µM (inactive) and the GI50 (DMS-273) was 5.96 µM (inactive). For the same compound, the GI50 (RXF 393) was 10.3 µM (inactive).

`CC(N)C(=O)c1ccc(O)cc1` (centres undefined) was tested, and the GI50 (MOLT-4) was > 100 µM (inactive), the GI50 (SF-268) was > 100 µM (inactive) and the GI50 (KM-20L2) was > 100 µM (inactive). For the same compound, the GI50 (OVCAR-3) was > 100 µM (inactive), the GI50 (U-251) was > 100 µM (inactive) and the GI50 (CCRF-CEM) was > 100 µM (inactive). The GI50 (SNB-19) was > 100 µM (inactive), the GI50 (A549) was > 100 µM (inactive) and the GI50 (786-0) was > 100 µM (inactive). For the same compound, the GI50 (KM12) was > 100 µM (inactive), the GI50 (DLD-1) was > 100 µM (inactive) and the GI50 (HL-60) was > 100 µM (inactive). For the same compound, the GI50 (UACC-257) was > 100 µM (inactive), the GI50 (SW-620) was > 100 µM (inactive) and the GI50 (LOX IMVI) was > 100 µM (inactive). For the same compound, the GI50 (OVCAR-8) was > 100 µM (inactive), the GI50 (SN12C) was > 100 µM (inactive) and the GI50 (HOP-92) was > 100 µM (inactive). The GI50 (SNB-78) was > 100 µM (inactive), the GI50 (M14) was > 100 µM (inactive) and the GI50 (UO-31) was > 100 µM (inactive). For the same compound, the GI50 (IGROV-1) was > 100 µM (inactive), the GI50 (RXF 631) was > 100 µM (inactive) and the GI50 (UACC-62) was > 100 µM (inactive). The GI50 (OVCAR-5) was > 100 µM (inactive), the GI50 (HT-29) was > 100 µM (inactive) and the GI50 (TK-10) was > 100 µM (inactive). For the same compound, the GI50 (COLO 205) was > 100 µM (inactive), the GI50 (CAKI-1) was > 100 µM (inactive) and the GI50 (SK-MEL-28) was > 100 µM (inactive). The GI50 (LXFL 529) was > 100 µM (inactive), the GI50 (SK-OV-3) was > 100 µM (inactive) and the GI50 (NCI-H522) was > 100 µM (inactive). The GI50 (K562) was > 100 µM (inactive), the GI50 (EKVX) was > 100 µM (inactive) and the GI50 (Malme-3M) was > 100 µM (inactive). The GI50 (NCI-H460) was > 100 µM (inactive), the GI50 (SF-539) was > 100 µM (inactive) and the GI50 (DMS-114) was > 100 µM (inactive). For the same compound, the GI50 (SK-MEL-2) was > 100 µM (inactive), the GI50 (HCT-116) was > 100 µM (inactive) and the GI50 (A498) was > 100 µM (inactive). The GI50 (SK-MEL-5) was > 100 µM (inactive), the GI50 (OVCAR-4) was > 100 µM (inactive) and the GI50 (HOP-18) was > 100 µM (inactive). For the same compound, the GI50 (HCC 2998) was > 100 µM (inactive), the GI50 (SF-295) was > 100 µM (inactive) and the GI50 (ACHN) was > 100 µM (inactive). For the same compound, the GI50 (SNB-75) was > 100 µM (inactive), the GI50 (RPMI-8226) was > 100 µM (inactive) and the GI50 (NCI-H23) was > 100 µM (inactive). For the same compound, the GI50 (HCT-15) was > 100 µM, the GI50 (HOP-62) was > 100 µM (inactive) and the GI50 (DMS-273) was > 100 µM (inactive). For the same compound, the GI50 (RXF 393) was > 100 µM (inactive) and the GI50 (NCI-H226) was > 100 µM (inactive).

In the case of `COC(=O)/C(C#N)=C(\N)C(Cl)(Cl)Cl`, the GI50 (MOLT-4) was 0.379 µM (active), the GI50 (SF-268) was 3.92 µM (inactive) and the GI50 (KM-20L2) was 29.7 µM (inactive). The GI50 (OVCAR-3) was 3.3 µM (inactive), the GI50 (U-251) was 16.5 µM (inactive) and the GI50 (CCRF-CEM) was 0.338 µM (active). The GI50 (SNB-19) was 40.8 µM (inactive), the GI50 (M19-MEL) was 2.43 µM (inactive) and the GI50 (XF498) was 1.78 µM (inactive). For the same compound, the GI50 (A549) was 3.33 µM (inactive), the GI50 (786-0) was 4.11 µM (inactive) and the GI50 (KM12) was 4.32 µM (inactive). For the same compound, the GI50 (DLD-1) was 1.17 µM (inactive), the GI50 (HL-60) was 0.319 µM (active) and the GI50 (SR) was 0.449 µM (active). The GI50 (UACC-257) was 3.08 µM (inactive), the GI50 (SW-620) was 0.456 µM (active) and the GI50 (LOX IMVI) was 2.65 µM (inactive). For the same compound, the GI50 (OVCAR-8) was 2.15 µM (inactive), the GI50 (SN12C) was 2.87 µM (inactive) and the GI50 (HOP-92) was 2.99 µM (inactive). The GI50 (SNB-78) was 6.18 µM (inactive), the GI50 (M14) was 1.43 µM (inactive) and the GI50 (UO-31) was 27.1 µM (inactive). The GI50 (RXF 631) was 2.78 µM (inactive), the GI50 (UACC-62) was 1.37 µM (inactive) and the GI50 (TK-10) was 2.55 µM (inactive). The GI50 (COLO 205) was 2.32 µM (inactive), the GI50 (CAKI-1) was 5.4 µM (inactive) and the GI50 (SK-MEL-28) was 2 µM (inactive). The GI50 (LXFL 529) was 2.7 µM (inactive), the GI50 (SK-OV-3) was 1.81 µM (inactive) and the GI50 (NCI-H522) was 1.9 µM (inactive). The GI50 (K562) was 0.442 µM (active), the GI50 (EKVX) was 4.68 µM (inactive) and the GI50 (NCI-H460) was 4.33 µM (inactive). The GI50 (DMS-114) was 3.73 µM (inactive), the GI50 (SK-MEL-2) was 5.53 µM (inactive) and the GI50 (HCT-116) was 0.643 µM (active). The GI50 (A498) was 3.4 µM (inactive), the GI50 (SK-MEL-5) was 1.69 µM (inactive) and the GI50 (OVCAR-4) was 2.67 µM (inactive). For the same compound, the GI50 (HCC 2998) was 3.06 µM (inactive), the GI50 (SF-295) was 5.09 µM (inactive) and the GI50 (ACHN) was 2.37 µM (inactive). The GI50 (SNB-75) was 3.85 µM (inactive), the GI50 (RPMI-8226) was 1.57 µM (inactive) and the GI50 (NCI-H23) was 4.82 µM (inactive). For the same compound, the GI50 (HCT-15) was 2.2 µM, the GI50 (HOP-62) was 16.1 µM (inactive) and the GI50 (DMS-273) was 3.45 µM (inactive). The GI50 (RXF 393) was 1.61 µM (inactive).
